Consider 26 compounds from patent publication US10844049B2, “GLP-1R agonists and uses thereof” (QILU REGOR THERAPEUTICS INC., priority 2018, dated 2020).

By pEC50 is commonly meant the EC50 on a negative log10 scale, so that one unit is a factor of ten.

pEC50: −log10 of the molar value.

Chain of GLP1R (P43220 24-463): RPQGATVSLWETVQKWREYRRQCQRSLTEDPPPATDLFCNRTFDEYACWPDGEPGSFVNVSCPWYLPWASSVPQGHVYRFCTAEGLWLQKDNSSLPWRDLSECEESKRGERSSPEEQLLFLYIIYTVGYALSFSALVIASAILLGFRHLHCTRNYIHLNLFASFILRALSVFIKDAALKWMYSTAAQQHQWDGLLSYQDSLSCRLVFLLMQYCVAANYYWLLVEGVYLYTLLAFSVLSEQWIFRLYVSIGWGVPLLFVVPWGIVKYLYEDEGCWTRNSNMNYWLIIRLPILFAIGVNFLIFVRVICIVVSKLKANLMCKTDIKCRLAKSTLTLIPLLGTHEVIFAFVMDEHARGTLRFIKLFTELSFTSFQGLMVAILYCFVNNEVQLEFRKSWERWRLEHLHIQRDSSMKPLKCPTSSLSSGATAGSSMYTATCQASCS

The target in this assay is GLP1R (Homo sapiens, UniProt P43220). The assay can be described thus: GLP1R cAMP HTRF assay, HEK293/GLP-1R/CRE/Luc (HEK293T cells). Format: cell-based. To be noted: read-out: EC50. Summed up:
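cAMP accumulation via HTRF after 30 min, 37 °C exposure of 1000 receptor-expressing cells/well to compound (0.5% DMSO final) in IBMX (500 μM)/0.1% BSA DPBS.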
On the technique in general: Time-resolved FRET reads energy transfer from a long-lived donor to a nearby acceptor.
For the compound `N#Cc1ccc(COc2nccc(C3=CCN(Cc4nc5ccc(C(=O)O)cc5n4C[C@@H]4CCO4)CC3)n2)c(F)c1` [Compound 177, (S)-2-((4-(2-((4-cyano-2-fluorobenzyl)oxy)pyrimidin-4-yl)-5,6-dihydropyridin-1(2H)-yl)methyl)-1-(oxetan-2-ylmethyl)-1H-benzo[d]imidazole-6-carboxylic add], the negative logarithm of the EC50 (pEC50) is not below 7.82. Consider `O=C(O)c1ccc2nc(CN3CCN(c4cccc(OCc5ccc(Cl)cc5F)c4)CC3)n(C[C@@H]3CCO3)c2c1` [Compound 178, (S)-2-((4-(3-((4-chloro-2-fluorobenzyl)oxy)phenyl)piperazin-1-yl)methyl)-1-(oxetan-2-ylmethyl)-1H-benzo[d]imidazole-6-carboxylic add], for which the pEC50 is not below 7.82. In the case of `O=C(O)c1ccc2nc(CN3CCN(c4nc(OCc5ccc(Cl)cc5F)ncc4F)CC3)n(C[C@@H]3CCO3)c2c1` [Compound 179, (S)-2-((4-(2-(4-chloro-2-fluorobenzyloxy)-5-fluoropyrimidin-4-yl)piperazin-1-yl)methyl)-1-(oxetan-2-ylmethyl)-1H-benzo[d]imidazole-6-arboxylic acid] it was not below 7.82; in that of `O=C(O)c1ccc2nc(CN3CCN(c4ncc(F)c(OCc5ccc(Cl)cc5F)n4)CC3)n(C[C@@H]3CCO3)c2c1` [Compound 180, (S)-2-((4-(4-(4-chloro-2-fluorobenzyloxy)-5-fluoropyrimidin-2-yl)piperazin-1-yl)methyl)-1-(oxetan-2-ylmethyl)-1H-benzo[d]imidazole-6-carboxylic add], not below 7.82; in that of `O=C(O)c1ccc2nc(CN3CCN(c4nccc(OCc5ccc(Cl)cc5F)n4)CC3)n(C[C@@H]3CCO3)c2c1` [Compound 181, (S)-2-((4-(4-((4-chloro-2-fluorobenzyl)oxy)pyrimidin-2-yl)piperazin-1-yl)methyl)-1-(oxetan-2-ylmethyl)-1H-benzo[d]imidazole-6-carboxylic acid], not below 7.82. In the case of `CCn1cncc1Cn1c(CN2CC=C(c3cccc(OCc4ccc(C#N)cc4F)n3)CC2)nc2ccc(C(=O)O)cc21` [Compound 182, 2-((6-((4-cyano-2-fluorobenzyl)oxy)-3′,6′-dihydro-[2,4′-bipyridin]-1′(2′H)-yl)methyl)-1-((1-ethyl-1H-imidazol-5-yl)methyl)-1H-benzo[d]imidazole-6-carboxylic acid] it was not below 7.82; in that of `CCn1cnc(Cn2c(CN3CC=C(c4cccc(OCc5ccc(C#N)cc5F)n4)CC3)nc3ccc(C(=O)O)cc32)c1` [Compound 183, 2-((6-((4-cyano-2-fluorobenzyl)oxy)-3′,6′-dihydro-[2H′-bipyridin]-1′(2′H)-yl)methyl)-1-((1-ethyl-1H-imidazol-4-yl)methyl)-1H-benzo[d]imidazole-6-carboxylic acid], not below 6.82. Turning to `O=C(O)c1ccc2nc(CN3CCN(c4ccc(F)c(OCc5ccc(Cl)cc5F)c4)CC3)n(C[C@@H]3CCO3)c2c1` [Compound 184, (S)-2-((4-(3-((4-chloro-2-fluorobenzyl)oxy)-4-fluorophenyl)piperazin-1-yl)methyl)-1-(oxetan-2-ylmethyl)-1H-benzo[d]imidazole-6-carboxylic acid], the negative logarithm of the EC50 (pEC50) was not below 7.82.

With `O=C(O)c1ccc2nc(CN3CCN(c4cc(F)cc(OCc5ccc(Cl)cc5F)c4)CC3)n(C[C@@H]3CCO3)c2c1` [Compound 185, (S)-2-((4-(3-((4-chloro-2-fluorobenzyl)oxy)-5-fluorophenyl)piperazin-1-yl)methyl)-1-(oxetan-2-ylmethyl)-1H-benzo[d]imidazole-6-carboxylic acid], the pEC50 is not below 7.82. In the case of `O=C(O)c1ccc2nc(CN3CCN(c4cc(OCc5ccc(Cl)cc5F)ccc4F)CC3)n(C[C@@H]3CCO3)c2c1` [Compound 186, (S)-2-((4-(5-(4-chloro-2-fluorobenzyloxy)-2-fluorophenyl)piperazin-1-yl)methyl)-1-(oxetan-2-ylmethyl)-1H-benzo[d]imidazole-6-carboxylic acid] it was not below 6.82. For `O=C(O)c1ccc2nc(CN3CCN(c4cc(F)c(F)c(OCc5ccc(Cl)cc5F)c4)CC3)n(C[C@@H]3CCO3)c2c1` [Compound 187, (S)-2-((4-(3-(4-chloro-2-fluorobenzyloxy)-4,5-difluorophenyl)piperazin-1-yl)methyl)-1-(oxetan-2-ylmethyl)-1H-benzo[d]imidazole-6-carboxylic acid], the pEC50 was not below 7.82. The figure for `O=C(O)c1ccc2nc(CN3CCN(c4cc(OCc5ccc(Cl)cc5F)c(F)cc4F)CC3)n(C[C@@H]3CCO3)c2c1` [Compound 188] is not below 6.82; for `O=C(O)c1ccc2nc(CN3CCN(c4cccc(OCc5ccc(C(F)(F)F)cc5)c4)CC3)n(C[C@@H]3CCO3)c2c1` [Compound 189] it is not below 6.82; for `O=C(O)c1ccc2nc(CN3CCN(c4cccc(OCc5ccc(C#CC6CC6)cc5F)c4)CC3)n(C[C@@H]3CCO3)c2c1` [Compound 190, (S)-2-((4-(3-((4-(cyclopropylethynyl)-2-fluorobenzyl)oxy)phenyl)piperazin-1-yl)methyl)-1-(oxetan-2-ylmethyl)-1H-benzo[d]imidazole-6-carboxylic acid] it is not below 6.82. In the case of `N#Cc1ccc(COc2cccc(C3CCN(Cc4nc5ccc(C(=O)O)cc5n4C[C@@H]4CCO4)CC3)c2)c(F)c1` [Compound 191, (S)-2-((4-(3-((4-cyano-2-fluorobenzyl)oxy)phenyl)piperidin-1-yl)methyl)-1-(oxetan-2-ylmethyl)-1H-benzo[d]imidazole-6-carboxylic acid], the pEC50 is not below 6.82. The figure for `O=C(O)c1ccc2nc(CN3CCC(c4cccc(OCc5ccc(C#CC6CC6)cc5F)c4)CC3)n(C[C@@H]3CCO3)c2c1` [Compound 192, (S)-2-((4-(3-((4-(cyclopropylethynyl)-2-fluorobenzyl)oxy)phenyl)piperidin-1-yl)methyl)-1-(oxetan-2-ylmethyl)-1H-benzo[d]imidazole-6-carboxylic acid] is not below 6.82; for `N#Cc1ccc(COc2cccc(N3CCN(Cc4nc5ccc(C(=O)O)cc5n4C[C@@H]4CCO4)CC3)c2)c(F)c1` [Compound 193, (S)-2-((4-(3-(4-cyano-2-fluorobenzyloxy)phenyl)piperazin-1-yl)methyl)-1-(oxetan-2-ylmethyl)-1H-benzo[d]imidazole-6-carboxylic acid] it is not below 6.82. In the case of `N#Cc1ccc(COc2cc(N3CCN(Cc4nc5ccc(C(=O)O)cc5n4C[C@@H]4CCO4)CC3)ccc2F)c(F)c1` [Compound 195, (S)-2-((4-(3-((4-cyano-2-fluorobenzyl)oxy)-4-fluorophenyl)piperazin-1-yl)methyl)-1-(oxetan-2-ylmethyl)-1H-benzo[d]imidazole-6-carboxylic add] it was not below 7.82. Take `O=C(O)c1ccc2nc(CN3CCN(c4ccc(F)c(OCc5ccc(C#CC6CC6)cc5F)c4)CC3)n(C[C@@H]3CCO3)c2c1` [Compound 196, (S)-2-((4-(3-((4-(cyclopropylethynyl)-2-fluorobenzyl)oxy)-4-fluorophenyl)piperazin-1-yl)methyl)-1-(oxetan-2-ylmethyl)-1H-benzo[d]imidazole-6-carboxylic add]: the pEC50 was not below 6.82.

As to `N#Cc1ccc(COc2ccc(F)c(N3CCN(Cc4nc5ccc(C(=O)O)cc5n4C[C@@H]4CCO4)CC3)c2)c(F)c1` [Compound 197, (S)-2-((4-(5-((4-cyano-2-fluorobenzyl)oxy)-2-fluorophenyl)piperazin-1-yl)methyl)-1-(oxetan-2-ylmethyl)-1H-benzo[d]imidazole-6-carboxylic add], the pEC50 is not below 6.00.

Consider `O=C(O)c1ccc2nc(CN3CCN(c4cc(OCc5ccc(C#CC6CC6)cc5F)ccc4F)CC3)n(C[C@@H]3CCO3)c2c1` [Compound 198, (S)-2-((4-(5-((4-(cyclopropylethynyl)-2-fluorobenzyl)oxy)-2-fluorophenyl)piperazin-1-yl)methyl)-1-(oxetan-2-ylmethyl)-1H-benzo[d]imidazole-6-carboxylic acid], for which the pEC50 is not below 6.00. The figure for `O=C(O)c1ccc2nc(CN3CC=C(c4cccc(OCc5ccc(C#CC6CC6)cc5F)c4)CC3)n(C[C@@H]3CCO3)c2c1` [Compound 199, (S)-2-((4-(3-((4-(cyclopropylethynyl)-2-fluorobenzyl)oxy)phenyl)-3,6-dihydropyridin-1(2H)-yl)methyl)-1-(oxetan-2-ylmethyl)-1H-benzo[d]imidazole-6-carboxylicacid] is not below 6.82. `O=C(O)c1ccc2nc(CN3CC=C(c4nccc(OCc5ccc(C#CC6CC6)cc5F)n4)CC3)n(C[C@@H]3CCO3)c2c1` [Compound 200, (S)-2-((4-(4-((4-(cyclopropylethynyl)-2-fluorobenzyl)oxy)pyrimidin-2-yl)-3,6-dihydropyridin-1(2H)-yl)methyl)-1-(oxetan-2-ylmethyl)-1H-benzo[d]imidazole-6-carboxylic acid]: the pEC50 was not below 7.82. In the case of `O=C(O)c1ccc2nc(CN3CC=C(c4ccnc(OCc5ccc(C#CC6CC6)cc5F)n4)CC3)n(C[C@@H]3CCO3)c2c1` [Compound 201, (S)-2-((4-(2-((4-(cyclopropylethynyl)-2-fluorobenzyl)oxy)pyrimidin-4-yl)-3,6-dihydropyridin-1(2H)-yl)methyl)-1-(oxetan-2-ylmethyl)-1H-benzo[d]imidazole-6-carboxylic acid] it was not below 7.82; in that of `O=C(O)c1ccc2nc(CN3CC=C(c4ccc(F)c(OCc5ccc(C#CC6CC6)cc5F)c4)CC3)n(C[C@@H]3CCO3)c2c1` [Compound 202, (S)-2-((4-(3-((4-(cyclopropylethynyl)-2-fluorobenzyl)oxy)-4-fluorophenyl)-3,6-dihydropyridin-1(2H)-yl)methyl)-1-(oxetan-2-ylmethyl)-1H-benzo[d]imidazole-6-carboxylic acid], not below 6.82.

Regarding `O=C(O)c1ccc2nc(CN3CC=C(c4cc(F)c(F)c(OCc5ccc(C#CC6CC6)cc5F)c4)CC3)n(C[C@@H]3CCO3)c2c1` [Compound 203, (S)-2-((4-(3-(4-(cyclopropylethynyl)-2-fluorobenzyloxy)-4,5-difluorophenyl)-5,6-dihydropyridin-1(2H)-yl)methyl)-1-(oxetan-2-ylmethyl)-1H-benzo[d]imidazole-6-carboxylic acid], the pEC50 was not below 6.82.
